Experimental data: patent US9018176B2, “Inducers of hematopoiesis and fetal globin production for treatment of cytopenias and hemoglobin disorders” (priority 2010, dated 2015)

Tests used:
histone deacetylases = assay: Histone deacetylase inhibition
γ-globin mRNA [1] = assay: γ-globin mRNA in cultured primary human erythroid progenitors (BFU-e), real-time PCR; type: cell-based; details: Resveratrol 0.2 uM
γ-globin mRNA [2] = assay: as above; type: cell-based
Experimental: Erythroid progenitors were cultured from cord blood CD34+ cells. […] Each compound was tested in three different cultures. […] On day 14, RNA was extracted from cultured erythroid cells, and relative quantification PCR was performed. Briefly, cDNA was generated from equal amounts of total RNA extracted using The PerfectPure RNA Purification Kit (5 Prime Inc Gaithersburg, Md.). Real-time PCR was performed using an ABI 7500 Real-Time PCR system (Applied Biosystems, Foster City, Calif.). Levels of globin mRNA were calculated by the ΔΔCt method. […] GAPDH levels were used for standardization. Western blotting Nuclear extract of K562 cells and 14-day-old BFU-e were analyzed by electrophoresis using 5-24% gradient SDS-polyacrylamide mini-gels (BIORAD Laboratories. Hercules Calif.). Proteins in the gels were transferred to Immobilon-P membranes. Blots were then incubated with BCL11A polyclonal (Novus Biologicals, Littleton Co) or mouse monoclonal (Santa Cruz Biotechnology, Santa Cruz Calif.) antibodies, after washing blots were incubated with anti-rabbit IgG-horseradish peroxidase secondary antibody (ECL, Little Chalfont Buckinghamshire UK). BCL11A bands were detected on the X-ray film using Western Lightning Reagents (Perking Elmer Inc, Waltham, Mass.).

γ-globin gene promoter = assay: Dual luciferase reporter assay (μLCRβprRlucAγprFluc cassette) in GM979 cells; type: cell-based; details: Resveratrol at 10 μM, MS-275 at 5 μM
Source text: Cell-based screen for γ-globin inducing compounds in GM979 cells (Skarpidi, et al. Blood 2000; 96:321-326). Mini-gene construct integrated into GM979 cell genome. The readout is Firefly/Renilla luciferase ratio, and is designed to identify only strong inducers of the γ-globin promoter, and specificity for the γ- vs. the […]γ-globin gene. This second assay confirmed 12/15 candidates.
This assay is […], and consists of a dual-luciferase reporter construct containing the LCR and the […] luciferase and the Aγ-globin promoter linked to firefly luciferase (μLCRβprRlucAγprFluc cassette), stably-transfected into GM979 cells. The orientation of the promoters and μLCR allowed detection only of strong, specific inducers of the γ-globin gene promoter. This assay is also been predictive of in vivo HbF-inducing activity.
The γ-globin-specificity of hits was determined in a secondary assay employing a stably-transfected dual-luciferase reporter construct containing the LCR and the β-globin promoter linked to renilla luciferase and the Aγ-globin promoter linked to firefly luciferase (μLCRβprRlucAγprFluc cassette) (FIG. 2B).

γ-globin mRNA [3] = assay: γ-globin mRNA gene expression in K562 cells; type: cell-based
CB BFU-E cells = assay: CB BFU-E cell proliferation (cells/colony); details: FIG. 8
Experimental: Fetal globin-inducing activity in human erythroid progenitors was assessed. Human erythroid progenitors were cultured from peripheral blood samples, exposed to the test compounds at varying concentrations and for varying durations and analyzed for globin chain mRNA ratios. Erythroid progenitors were cultured from cord blood CD34+ cells. Briefly, CD34+ cells in the human cord blood were separated using a Ficoll-paque density gradient. CD34+ cells were cultured in H4230 medium containing 2 mM L-glutamine, 1% Methylcellulose in Iscove's Medium, 30% Fetal Bovine Serum, 1% Bovine Serum Albumin and 10^-4 M β-mercaptoethanol. Methylcellulose H4230 medium was supplemented with EPO (0.5 U/ml) and IL-3 (20 ng/ml) to support BFU-e growth. Cells were cultured in […] mini-dishes and incubated in a humidified atmosphere containing 5% CO2, at 37° C. Different concentrations of the test compounds were added at the time the cultures were established. Each compound was tested in three different cultures. BFU-e colonies grown in mini-dishes were counted on day 14 and harvested for mRNA analysis.

[4] = Hemoglobin disorder progenitors

Oc1ccc(C=Cc2cc(O)cc(O)c2)cc1 [Resveratrol, resveratrol]
concentration that inhibits histone deacetylases (histone deacetylases): 0.05 µM | fetal globin mRNA, Mean (γ-globin mRNA [1]; Cord Blood progenitors): 217 % of control | responses (cultures with induced fetal globin mRNA) (γ-globin mRNA [1]; Cord Blood progenitors): 5/5 | fetal globin mRNA, Mean (γ-globin mRNA [1]; [4]): 245 % of control | responses (cultures with induced fetal globin mRNA) (γ-globin mRNA [1]; [4]): 1/2 | fetal globin mRNA, Mean (γ-globin mRNA [1]; Normal progenitors): 122 % of control | responses (cultures with induced fetal globin mRNA) (γ-globin mRNA [1]; Normal progenitors): 1/2 | % induction of γ-globin mRNA gene expression (γ-globin mRNA [2]; FIG. 4C, HFU-E (burst-forming units-erythroid) cells, Resveratrol 30 μM, desloratadine 50 μM, NSC 50 μM, Benserazine 5 μM): most significant % increase | γ-globin mRNA induction (γ-globin mRNA [2]; cultured primary human erythroid progenitors, concentrations pharmacologically achievable in humans): up to 3 fold | concentrations that induce fetal globin (HbF) mRNA (γ-globin mRNA [2]; primary erythroid progenitors in vitro): 0.05 µM | activity compared with sodium Butyrate (γ-globin gene promoter; Ambroxol at 1 μM, Desloratadine at 1 μM, Benserazide at 0.03 μM (or a range of 30 nM-5 μM), NSC-95397 at 1 μM, versus sodium Butyrate at 2000 μM): significantly more active | most active at inducing γ-globin mRNA expression (γ-globin gene promoter; Benserazide at 0.03 μM): most active | concentration giving the most γ-globin mRNA expression (γ-globin mRNA [3]; FIG. 5, K562 cells, tested Desloratadine 10 μM-100 μM, Resveratrol 5 μM-30 μM, NSC 1 μM-50 μM): 30 µM | % induction of γ-globin mRNA gene expression (γ-globin mRNA [3]; FIGS. 4A and 4B, K562 cells, Resveratrol 30 μM, desloratadine 50 μM, NSC 50 μM, Benserazine 5 μM): most significant % increase | number of blood cells per colony (CB BFU-E cells): increase the number of blood cells per colony | cytotoxicity / inhibition of erythroid cell proliferation (CB BFU-E cells; Desloratadine 1 μM-10 μM, Resveratrol 0.05 μM-5 μM, Benserazide 0.1 μM-10 μM): non-cytotoxic
